# Laboratory results published in publication PMC12155096 (International Journal of Molecular Sciences, 2025).
# pIC50: −log10 of the molar value. Structures can show the parent of a compound that is named as a salt. Where two headings read alike, the source gives them in different places.
# Experiments:
# [1] = biological target: Photinus pyralis (firefly) luciferase (Photinus pyralis, UniProt P08659); test: biochemical; type: biochemical
# human CYP1A2 [2] = biological target: T1, human CYP1A2 (Homo sapiens, UniProt P05177)
# T1 sequence (P05177 1-516): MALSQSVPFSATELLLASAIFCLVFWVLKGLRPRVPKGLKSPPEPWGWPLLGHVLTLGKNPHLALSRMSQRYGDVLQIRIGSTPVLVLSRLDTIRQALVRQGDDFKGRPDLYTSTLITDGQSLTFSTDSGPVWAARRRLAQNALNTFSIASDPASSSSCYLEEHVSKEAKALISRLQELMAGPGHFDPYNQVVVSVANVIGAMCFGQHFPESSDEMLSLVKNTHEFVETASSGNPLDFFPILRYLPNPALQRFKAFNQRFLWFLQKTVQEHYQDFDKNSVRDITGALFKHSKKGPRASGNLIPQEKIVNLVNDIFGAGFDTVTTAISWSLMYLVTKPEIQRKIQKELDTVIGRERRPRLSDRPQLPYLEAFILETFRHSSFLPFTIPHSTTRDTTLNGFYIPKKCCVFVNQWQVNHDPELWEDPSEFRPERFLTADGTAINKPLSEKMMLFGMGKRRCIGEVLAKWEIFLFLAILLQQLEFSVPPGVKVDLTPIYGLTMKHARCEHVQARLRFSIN
# human CYP2C9 [3] = biological target: T2, human CYP2C9 (Homo sapiens, UniProt P11712)
# T2 sequence (P11712 whole entry): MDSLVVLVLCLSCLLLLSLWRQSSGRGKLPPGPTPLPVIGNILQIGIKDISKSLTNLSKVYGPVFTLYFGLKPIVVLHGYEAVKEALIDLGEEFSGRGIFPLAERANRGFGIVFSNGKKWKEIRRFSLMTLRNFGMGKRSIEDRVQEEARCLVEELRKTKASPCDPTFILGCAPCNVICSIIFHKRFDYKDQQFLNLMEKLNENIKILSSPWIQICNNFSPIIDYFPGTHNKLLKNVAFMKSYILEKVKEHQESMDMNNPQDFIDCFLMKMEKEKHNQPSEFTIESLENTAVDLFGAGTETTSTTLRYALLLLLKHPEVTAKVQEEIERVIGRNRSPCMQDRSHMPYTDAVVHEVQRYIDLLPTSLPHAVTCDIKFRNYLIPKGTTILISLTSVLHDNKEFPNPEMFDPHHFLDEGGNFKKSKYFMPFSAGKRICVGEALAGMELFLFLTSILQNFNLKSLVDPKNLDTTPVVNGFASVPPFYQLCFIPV
# human CYP2C19 [4] = biological target: T3, human CYP2C19 (Homo sapiens, UniProt P33261)
# T3 sequence (P33261 whole entry): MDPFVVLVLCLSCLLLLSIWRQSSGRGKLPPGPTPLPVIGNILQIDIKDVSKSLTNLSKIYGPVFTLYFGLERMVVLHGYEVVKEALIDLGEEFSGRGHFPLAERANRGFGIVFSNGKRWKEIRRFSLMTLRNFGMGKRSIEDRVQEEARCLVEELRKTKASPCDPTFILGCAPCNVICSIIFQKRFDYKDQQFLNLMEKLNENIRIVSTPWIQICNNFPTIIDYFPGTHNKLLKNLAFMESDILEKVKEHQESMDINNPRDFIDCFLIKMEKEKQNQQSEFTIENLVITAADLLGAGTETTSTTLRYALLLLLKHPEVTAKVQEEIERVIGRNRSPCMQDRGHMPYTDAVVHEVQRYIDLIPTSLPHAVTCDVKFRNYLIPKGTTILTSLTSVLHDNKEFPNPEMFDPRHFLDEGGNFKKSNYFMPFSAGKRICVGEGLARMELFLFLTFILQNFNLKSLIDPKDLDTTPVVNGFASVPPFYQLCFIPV
# human CYP2D6 = human CYP2D6 (Homo sapiens, UniProt P10635)
# Sequence of human CYP2D6 (P10635 whole entry): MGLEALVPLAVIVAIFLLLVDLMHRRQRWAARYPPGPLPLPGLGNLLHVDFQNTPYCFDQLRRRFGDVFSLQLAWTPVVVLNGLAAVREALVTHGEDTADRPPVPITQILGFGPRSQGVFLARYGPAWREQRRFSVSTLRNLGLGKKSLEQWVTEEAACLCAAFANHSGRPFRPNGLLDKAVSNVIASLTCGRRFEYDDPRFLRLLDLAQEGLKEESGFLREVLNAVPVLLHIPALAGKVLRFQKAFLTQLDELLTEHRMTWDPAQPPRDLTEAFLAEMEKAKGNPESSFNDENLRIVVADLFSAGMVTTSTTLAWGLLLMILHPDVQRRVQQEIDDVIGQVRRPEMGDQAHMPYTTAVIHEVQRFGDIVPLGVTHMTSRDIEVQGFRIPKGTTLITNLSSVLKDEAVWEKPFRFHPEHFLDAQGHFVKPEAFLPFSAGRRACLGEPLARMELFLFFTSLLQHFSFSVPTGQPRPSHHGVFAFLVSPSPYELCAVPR
# CYP3A4 = CYP3A4 (Homo sapiens, UniProt P08684)
# Sequence of CYP3A4 (P08684 whole entry): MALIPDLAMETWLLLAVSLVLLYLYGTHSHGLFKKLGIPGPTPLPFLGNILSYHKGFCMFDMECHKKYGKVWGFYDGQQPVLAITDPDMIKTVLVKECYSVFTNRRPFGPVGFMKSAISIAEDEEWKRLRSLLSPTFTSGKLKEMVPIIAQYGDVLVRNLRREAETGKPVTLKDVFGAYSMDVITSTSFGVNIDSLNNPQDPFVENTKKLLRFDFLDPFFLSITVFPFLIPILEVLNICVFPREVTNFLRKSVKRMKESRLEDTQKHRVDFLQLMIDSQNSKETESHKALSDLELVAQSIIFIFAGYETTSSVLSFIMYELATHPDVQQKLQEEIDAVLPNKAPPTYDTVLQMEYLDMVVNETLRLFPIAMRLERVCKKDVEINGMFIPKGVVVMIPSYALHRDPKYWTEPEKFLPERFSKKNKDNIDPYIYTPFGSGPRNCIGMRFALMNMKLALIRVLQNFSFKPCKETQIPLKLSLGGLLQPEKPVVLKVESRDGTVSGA
# human CYP1A2 [5] = biological target: T1, human CYP1A2; test: biochemical
# human CYP2C9 [6] = biological target: T2, human CYP2C9; test: biochemical
# human CYP2C19 [7] = biological target: T3, human CYP2C19; test: biochemical
# [8] = CYP1A2 AC50 (half-maximal activity concentration)
# [9] = CYP2C9 AC50 (half-maximal activity concentration)
# [10] = CYP2C19 AC50 (half-maximal activity concentration)
# Sequence of Photinus pyralis (firefly) luciferase (P08659 whole entry): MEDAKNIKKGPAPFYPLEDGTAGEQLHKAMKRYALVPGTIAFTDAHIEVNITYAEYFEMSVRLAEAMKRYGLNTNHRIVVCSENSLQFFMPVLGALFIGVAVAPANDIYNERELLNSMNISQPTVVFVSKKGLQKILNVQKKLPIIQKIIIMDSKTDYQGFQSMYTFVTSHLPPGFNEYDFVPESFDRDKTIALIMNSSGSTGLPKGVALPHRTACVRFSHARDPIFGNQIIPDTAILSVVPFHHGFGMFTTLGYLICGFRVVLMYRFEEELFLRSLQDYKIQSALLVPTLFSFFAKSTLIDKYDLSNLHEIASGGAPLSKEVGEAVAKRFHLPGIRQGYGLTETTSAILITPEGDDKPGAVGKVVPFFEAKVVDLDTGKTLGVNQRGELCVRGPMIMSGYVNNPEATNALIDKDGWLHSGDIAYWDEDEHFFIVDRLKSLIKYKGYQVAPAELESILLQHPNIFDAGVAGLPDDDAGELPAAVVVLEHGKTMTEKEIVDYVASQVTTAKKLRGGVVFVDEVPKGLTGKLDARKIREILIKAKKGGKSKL
compound,measurement,setting,value
CN1C[C@H](CNC(=O)OCc2ccccc2)C[C@@H]2c3cccc4c3c(cn4C)C[C@H]21 [Metergoline],Luciferase IC50,[1],Inactive
CC(CN(C)C)CN1c2ccccc2Sc2ccccc21.CC(CN(C)C)CN1c2ccccc2Sc2ccccc21.O=C(O)C(O)C(O)C(=O)O (stereo not drawn) [Trimeprazine tartrate],Luciferase IC50 (half-maximal inhibitory concentration),[1],Inactive
CC(=O)C1(O)CCC2C3CCC4=CC(=O)CCC4(C)C3CCC21C (stereo not drawn) [17alpha-Hydroxyprogesterone],Luciferase IC50 (half-maximal inhibitory concentration),[1],Inactive
CC[C@@H](CO)NC(=O)[C@@H]1C=C2c3cccc4[nH]cc(c34)C[C@H]2N(C)C1 [Methergine],Luciferase IC50,[1],Inactive
CC(C)(C)NC(=O)[C@@H]1CN(Cc2cccnc2)CCN1C[C@@H](O)C[C@@H](Cc1ccccc1)C(=O)N[C@H]1c2ccccc2C[C@H]1O [Indinavir sulfate],Luciferase IC50 (half-maximal inhibitory concentration),[1],Inactive
CNCCCC12CCC(c3ccccc31)c1ccccc12 [Maprotiline hydrochloride],Luciferase IC50,[1],Inactive
C[C@@H]1CC[C@H]2[C@@H](C)C(=O)O[C@@H]3O[C@@]4(C)CC[C@@H]1[C@]32OO4 [Artemisinin],Luciferase IC50 (half-maximal inhibitory concentration),[1],Inactive
COc1cc(NC(C)CCCN)c2ncccc2c1 (stereo not drawn) [Primaquine diphosphate],Luciferase IC50 (half-maximal inhibitory concentration),[1],Inactive
OCCOCCN1CCN(C(c2ccccc2)c2ccc(Cl)cc2)CC1 (stereo not drawn) [Hydroxyzine hydrochloride],Luciferase IC50,[1],Inactive
[Cl-].c1ccc(C[P+](c2ccccc2)(c2ccccc2)c2ccccc2)cc1 [Benzyltriphenylphosphonium chloride],Luciferase IC50 (half-maximal inhibitory concentration),[1],Inactive
HMR1171 trifluoroacetate (1:1),Luciferase IC50,[1],Inactive
same,CYP1A2 IC50,human CYP1A2 [2],Inactive
same,pIC50,human CYP2C9 [3],4.55
same,pIC50,human CYP2C19 [4],4.55
same,pIC50,human CYP2D6,5.05
CCC(CN)=C(c1ccccc1)c1ccccc1.Cl [Etifelmine hydrochloride],Luciferase IC50,[1],Inactive
same,CYP1A2 Efficacy,human CYP1A2 [2],14.36 ± 3.71 (-50 ± 13) %
same,CYP2C9 Efficacy,human CYP2C9 [3],11.85 ± 3.88 (-96 ± 8) %
same,CYP2C19 Efficacy,human CYP2C19 [4],5.99 ± 2.37 (-107 ± 10) %
same,CYP2D6 Efficacy,human CYP2D6,4.07 ± 0.52 (-106 ± 3) %
Kadethrin,Luciferase IC50,[1],Inactive
CC(CNC1CCCCC1)OC(=O)c1ccccc1 (stereo not drawn) [Hexylcaine hydrochloride],Luciferase IC50 (half-maximal inhibitory concentration),[1],Inactive
COc1ccc(CCN(C)CCCC(C#N)(c2cc(OC)c(OC)c(OC)c2)C(C)C)cc1OC (stereo not drawn) [Gallopamil hydrochloride],Luciferase IC50 (half-maximal inhibitory concentration),[1],Inactive
CCOC(=O)OC(C)OC(=O)[C@@H]1N2C(=O)[C@@H](NC(=O)[C@H](N)c3ccccc3)[C@H]2SC1(C)C (stereo partly drawn) [Bacampicillin hydrochloride],Luciferase IC50 (half-maximal inhibitory concentration),[1],Inactive
COCCOC(=O)C1=C(C)NC(C)=C(C(=O)OC(C)C)C1c1cccc([N+](=O)[O-])c1 (stereo not drawn) [Nimodipine],Luciferase IC50 (half-maximal inhibitory concentration),[1],Inactive
CCOc1ccccc1OCC1CNCCO1 (stereo not drawn) [Viloxazine hydrochloride],Luciferase IC50 (half-maximal inhibitory concentration),[1],Inactive
CCC(C)c1ccc(O)cc1 (stereo not drawn) [4-(Butan-2-yl)phenol],CYP2D6 AC50 (half-maximal activity concentration),human CYP2D6,Inactive
same,CYP3A4 AC50 (half-maximal activity concentration),CYP3A4,Inactive
same,AC50,human CYP1A2 [5]; [8],34.6 µM
same,AC50,human CYP2C9 [6]; [9],33.4 µM
same,AC50,human CYP2C19 [7]; [10],3.47 µM
Cl.Cl.c1ccc(CNCCNCc2ccccc2)cc1,Luciferase IC50,[1],Inactive
same,CYP1A2 Efficacy,human CYP1A2 [2],20.22 ± 5.13 (-47 ± 10) %
same,CYP2C9 IC50,human CYP2C9 [3],Inactive
same,CYP2C19 Efficacy,human CYP2C19 [4],8.08 ± 0.55 (-122 ± 16) %
same,CYP2D6 Efficacy,human CYP2D6,0.79 ± 0.18 (-110 ± 5) %
Cc1c(-c2ccc(O)cc2)n(Cc2ccc(OCCN3CCCCCC3)cc2)c2ccc(O)cc12 [Bazedoxifene],Luciferase IC50 (half-maximal inhibitory concentration),[1],Inactive
CCCCCCCCCCCCCCCC[N+](C)(C)Cc1ccccc1.[Cl-] [Benzylhexadecyldimethylammonium chloride],Luciferase IC50,[1],Inactive
same,CYP1A2 Efficacy,human CYP1A2 [2],75.23 ± 5.09 (-82 ± 8) %
same,CYP2C9 Efficacy,human CYP2C9 [3],46.2 ± 8.63 (-120 ± 17) %
same,CYP2C19 Efficacy,human CYP2C19 [4],46.97 ± 13.09 (-144 ± 26) %
same,CYP2D6 Efficacy,human CYP2D6,0.34 ± 0.06 (-98 ± 2) %
CCCCCCCCCCCCCCCC[N+](C)(C)C.[Cl-] [Hexadecyl trimethyl ammonium chloride],Luciferase IC50,[1],Inactive
same,CYP1A2 IC50,human CYP1A2 [2],Inactive
same,CYP2C9 IC50,human CYP2C9 [3],Inactive
same,CYP2C19 Efficacy,human CYP2C19 [4],43.2 ± 0.0 (-68 ± 16) %
same,CYP2D6 Efficacy,human CYP2D6,0.8 ± 0.05 (-93 ± 8) %
"Nc1c(Br)cc([N+](=O)[O-])cc1Br [2,6-Dibromo-4-nitroaniline]",CYP2D6 AC50 (half-maximal activity concentration),human CYP2D6,Inactive
same,CYP3A4 AC50 (half-maximal activity concentration),CYP3A4,Inactive
same,AC50,human CYP1A2 [5]; [8],1.27 µM
same,AC50,human CYP2C9 [6]; [9],18.1 µM
same,AC50,human CYP2C19 [7]; [10],43.1 µM
CC#C[C@]1(O)CC[C@H]2[C@@H]3CCC4=CC(=O)CCC4=C3[C@@H](c3ccc(N(C)C)cc3)C[C@@]21C [Mifepristone],Luciferase IC50,[1],Inactive
CCCNC(C)(C)COC(=O)c1ccccc1 [Meprylcaine hydrochloride],Luciferase IC50 (half-maximal inhibitory concentration),[1],Inactive
Diniconazole,Luciferase IC50 (half-maximal inhibitory concentration),[1],Inactive
CCN(CCCCOC(=O)c1ccc(OC)c(OC)c1)C(C)Cc1ccc(OC)cc1 (stereo not drawn) [Mebeverine hydrochloride],Luciferase IC50 (half-maximal inhibitory concentration),[1],Inactive
O=C(c1ccc(OCCN2CCCCC2)cc1)c1c(-c2ccc(O)cc2)sc2cc(O)ccc12 [Raloxifene hydrochloride],Luciferase IC50 (half-maximal inhibitory concentration),[1],Inactive
Cc1ccc2nc(N)[nH]c(=O)c2c1Sc1ccncc1.Cl.Cl [Nolatrexed dihydrochloride],Luciferase IC50,[1],Inactive
same,CYP1A2 Efficacy,human CYP1A2 [2],3.33 ± 0.9 (-94 ± 12) %
same,CYP2C9 Efficacy,human CYP2C9 [3],4.82 ± 1.17 (-95 ± 9) %
same,CYP2C19 Efficacy,human CYP2C19 [4],3.3 ± 1.68 (-116 ± 1) %
same,CYP2D6 Efficacy,human CYP2D6,14.43 ± 1.84 (-95 ± 12) %
CSc1ccc2c(c1)N(CCC1CCCCN1C)c1ccccc1S2 (stereo not drawn) [Thioridazine hydrochloride],Luciferase IC50 (half-maximal inhibitory concentration),[1],Inactive
CCN(CC)c1ccc(C=O)cc1 [4-(Diethylamino)benzaldehyde],CYP2D6 AC50 (half-maximal activity concentration),human CYP2D6,Inconclusive inhibitor
same,CYP3A4 AC50 (half-maximal activity concentration),CYP3A4,Inactive
same,AC50,human CYP1A2 [5],5.66 µM
same,AC50,human CYP2C9 [6],20.1 µM
same,AC50,human CYP2C19 [7],14.3 µM
CC#C[C@]1(O)CC[C@H]2[C@@H]3C[C@H](C)C4=CC(=O)CC[C@]4(C)[C@H]3CC[C@@]21C [Dimethisteron],Luciferase IC50,[1],Inactive
same,CYP1A2 IC50,human CYP1A2 [2],Inactive
same,CYP2D6 IC50,human CYP2D6,Inactive
same,pIC50,human CYP2C9 [6]; CYP2C9 IC50,4.62
same,pIC50,human CYP2C19 [7]; CYP2C19 IC50,5.03
"CC(C)c1nc(CN(C)C(=O)N[C@H](C(=O)N[C@@H](Cc2ccccc2)C[C@H](O)[C@H](Cc2ccccc2)NC(=O)OCc2cncs2)C(C)C)cs1 [ritonavir, reference compound]",Luciferase IC50 (half-maximal inhibitory concentration),[1],Inactive
COc1ccccc1OC(=O)Oc1ccccc1OC [Guaiacol carbonate],CYP2D6 AC50 (half-maximal activity concentration),human CYP2D6,Inactive
same,CYP3A4 AC50 (half-maximal activity concentration),CYP3A4,Inactive
same,AC50,human CYP1A2 [5],6.41 µM
same,AC50,human CYP2C9 [6],14.9 µM
same,AC50,human CYP2C19 [7],9.77 µM
Clc1ccc(C(Cn2ccnc2)OCc2c(Cl)cccc2Cl)c(Cl)c1 (stereo not drawn) [Isoconazole nitrate],Luciferase IC50 (half-maximal inhibitory concentration),[1],Inactive
CN(C)c1ccc2nc3ccc(=[N+](C)C)cc-3sc2c1 [Methylene blue],pIC50,[1],4.54
Clc1ccccc1CN1CCc2sccc2C1 [Ticlopidine hydrochloride],pIC50,[1],5.06
Nc1c(Cl)cc([N+](=O)[O-])cc1Cl [Dicloran],CYP2D6 AC50 (half-maximal activity concentration),human CYP2D6,Inactive
same,CYP3A4 AC50 (half-maximal activity concentration),CYP3A4,Inactive
same,AC50,human CYP1A2 [5]; [8],2.84 µM
same,AC50,human CYP2C9 [6]; [9],17.9 µM
same,AC50,human CYP2C19 [7]; [10],55.8 µM
C[C@]12CC[C@@H]3c4ccc(O)cc4CC[C@H]3[C@@H]1CC[C@@H]2O [17beta-Estradiol],CYP2D6 AC50 (half-maximal activity concentration),human CYP2D6,Inactive
same,CYP3A4 AC50 (half-maximal activity concentration),CYP3A4,Inconclusive activator
same,AC50,human CYP1A2 [5]; [8],29.1 µM
same,AC50,human CYP2C9 [6]; [9],5.72 µM
same,AC50,human CYP2C19 [7]; [10],16.8 µM
"CCc1cc(Cc2cc(CC)c(N)c(CC)c2)cc(CC)c1N [4,4'-Methylenebis(2,6-diethylaniline)]",Luciferase IC50,[1],Inactive
CCCNCC(O)COc1ccccc1C(=O)CCc1ccccc1 (stereo not drawn) [Propafenone hydrochloride],Luciferase IC50 (half-maximal inhibitory concentration),[1],Inactive
CC(C)c1ccccc1O [2-Isopropylphenol],CYP2C9 AC50 (half-maximal activity concentration),human CYP2C9 [3],Inactive
same,CYP2D6 AC50 (half-maximal activity concentration),human CYP2D6,Inactive
same,CYP3A4 AC50 (half-maximal activity concentration),CYP3A4,Inactive
same,AC50,human CYP1A2 [5],47.7 µM
same,AC50,human CYP2C19 [7],9.09 µM
